One test has as its target BRD4-BD12 (1-477) (Homo sapiens (Human), UniProt O60885). As to the kind of experiment: Alphascreen binding assay BRD4-BD12. To be noted: BRD4(1 2) H4; read-out: Biochemical activity (IC50 μM) BRD4(1 2) H4. A digest of the protocol:
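In this competition format, compounds displace a biotinylated tetra-acetyl H4 peptide from E. coli-expressed human BRD4 bromodomain constructs captured on nickel chelate beads. The reaction runs at pH 7.5 with 2 mM DTT and detergent for 1 h at room temperature before a 30 min bead step.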
For orientation: Bead proximity is the source of the signal in Alpha formats.

Another test relates to MV-4-11 cells. As to the kind of experiment: Oncology cell growth assay MV-4-11 (CellTiter Glo). To be noted: Homo sapiens, MV4-11, 72 h; MV-4-11, 3d growth; read-out: Cell activity (IC50 μM) MV-4-11 3d-Growth. The class given is cell-based. The essentials: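 Growth read by CellTiter Glo luminescence after 72 h compound treatment of MLL-AF4-bearing MV-4-11 cells (3000/well). Titration: 8 points, 1:3 steps, maximum 10 μM, 0.2% DMSO final. Data normalized to DMSO wells, four-parameter fit gives pIC50.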

The values below come from patent publication US10519177B2, “Heterocyclic compounds and uses thereof” (Plexxikon Inc., priority 2013, dated 2019).

A word on the IC50: it is the point on the concentration scale where inhibition reaches its midpoint. Take `Cc1noc(C)c1-c1cnc2c(-c3cnn(C)c3)cn(CC3(C)CCOCC3)c2c1` [P-0945, 3,5-dimethyl-4-[3-(1-methylpyrazol-4-yl)-1-[(4-methyltetrahydropyran-4-yl)methyl]pyrrolo[3,2-b]pyridin-6-yl]isoxazole]: the IC50 at BRD4-BD12 (1-477) and in the test on MV-4-11 cells was less than 1 µM throughout.

For the molecule `Cc1noc(C)c1-c1cnc2c(-c3ccc(C(C)(C)C#N)cc3)cn(CC3(C)CCOCC3)c2c1` [P-0946, 2-[4-[6-(3,5-dimethylisoxazol-4-yl)-1-[(4-methyltetrahydropyran-4-yl)methyl]pyrrolo[3,2-b]pyridin-3-yl]phenyl]-2-methyl-propanenitrile], the IC50 at BRD4-BD12 (1-477) and in the test with MV-4-11 cells was less than 1 µM throughout.

On to `Cc1noc(C)c1-c1cnc2c(I)cn(Cc3ncccc3F)c2c1` [P-0947, 4-[1-[(3-fluoro-2-pyridyl)methyl]-3-iodo-pyrrolo[3,2-b]pyridin-6-yl]-3,5-dimethyl-isoxazole], for which the IC50 on BRD4-BD12 (1-477) and with MV-4-11 cells was less than 1 µM in each case.

For the molecule `COC(=O)c1ccc(-c2cn(Cc3ncccc3F)c3cc(-c4c(C)noc4C)cnc23)cc1` [P-0948, methyl 4-[6-(3,5-dimethylisoxazol-4-yl)-1-[(3-fluoro-2-pyridyl)methyl]pyrrolo[3,2-b]pyridin-3-yl]benzoate], the IC50 at BRD4-BD12 (1-477) and in the test on MV-4-11 cells was less than 1 µM throughout.

`Cc1noc(C)c1-c1cnc2c(-c3ccc(C(=O)O)cc3)cn(Cc3ncccc3F)c2c1` [P-0949, 4-[6-(3,5-dimethylisoxazol-4-yl)-1-[(3-fluoro-2-pyridyl)methyl]pyrrolo[3,2-b]pyridin-3-yl]benzoic acid]: the IC50 at BRD4-BD12 (1-477) and in the test with MV-4-11 cells was less than 1 µM throughout.

`COC(=O)c1ccc(-n2cc(P(=O)(c3ccccc3)c3ccccc3)c3cc(-c4c(C)noc4C)cnc32)cc1` [P-0950, methyl 4-[5-(3,5-dimethylisoxazol-4-yl)-3-diphenylphosphoryl-pyrrolo[2,3-b]pyridin-1-yl]benzoate]: the IC50 on BRD4-BD12 (1-477) and in the test with MV-4-11 cells was less than 1 µM each time.

On to `Cc1noc(C)c1-c1cnc2c(c1)c(P(=O)(c1ccccc1)c1ccccc1)cn2-c1ccc(C(=O)O)cc1` [P-0951, 4-[5-(3,5-dimethylisoxazol-4-yl)-3-diphenylphosphoryl-pyrrolo[2,3-b]pyridin-1-yl]benzoic acid], for which the IC50 on BRD4-BD12 (1-477) and in the test with MV-4-11 cells was less than 1 µM throughout.

`COC(=O)C1(c2ccc(-c3cn(Cc4ccccn4)c4cc(-c5c(C)noc5C)cnc34)cc2)CC1` [P-0952, methyl 1-[4-[6-(3,5-dimethylisoxazol-4-yl)-1-(2-pyridylmethyl)pyrrolo[3,2-b]pyridin-3-yl]phenyl]cyclopropanecarboxylate]: the IC50 at BRD4-BD12 (1-477) and in the test with MV-4-11 cells was less than 1 µM each time.

With `COc1cc(-c2cn(Cc3ccccn3)c3cc(-c4c(C)noc4C)cnc23)ccc1C(=O)O` [P-0953, 4-[6-(3,5-dimethylisoxazol-4-yl)-1-(2-pyridylmethyl)pyrrolo[3,2-b]pyridin-3-yl]-2-methoxy-benzoic acid], the IC50 at BRD4-BD12 (1-477) and in the test with MV-4-11 cells was less than 1 µM throughout.

As for `Cc1noc(C)c1-c1cnc2c(-c3ccc(C4(C(=O)O)CC4)cc3)cn([C@@H](C)c3ccccn3)c2c1` [P-0955, 1-[4-[6-(3,5-dimethylisoxazol-4-yl)-1-[(1S)-1-(2-pyridyl)ethyl]pyrrolo[3,2-b]pyridin-3-yl]phenyl]cyclopropanecarboxylic acid], the IC50 at BRD4-BD12 (1-477) and in the test on MV-4-11 cells was less than 1 µM throughout.

On to `CC[C@H](c1ccccn1)n1cc(I)c2ncc(-c3c(C)noc3C)cc21` [P-0956, 4-[3-iodo-1-[(1R)-1-(2-pyridyl)propyl]pyrrolo[3,2-b]pyridin-6-yl]-3,5-dimethyl-isoxazole], for which the IC50 on BRD4-BD12 (1-477) and with MV-4-11 cells was less than 1 µM each time.

In the case of `COC(=O)c1ccc(-c2cn(Cc3cnc(C)s3)c3cc(-c4c(C)noc4C)cnc23)cc1` [P-0957, methyl 4-[6-(3,5-dimethylisoxazol-4-yl)-1-[(2-methylthiazol-5-yl)methyl]pyrrolo[3,2-b]pyridin-3-yl]benzoate], the IC50 on BRD4-BD12 (1-477) and in the test with MV-4-11 cells was less than 1 µM throughout.

In the case of `Cc1ncc(Cn2cc(-c3ccc(C(=O)O)cc3)c3ncc(-c4c(C)noc4C)cc32)s1` [P-0958, 4-[6-(3,5-dimethylisoxazol-4-yl)-1-[(2-methylthiazol-5-yl)methyl]pyrrolo[3,2-b]pyridin-3-yl]benzoic acid], the IC50 on BRD4-BD12 (1-477) and in the test on MV-4-11 cells was less than 1 µM throughout.

In the case of `CC[C@H](c1ccccn1)n1cc(-c2ccc(C(=O)OC)cc2)c2ncc(-c3c(C)noc3C)cc21` [P-0959, methyl 4-[6-(3,5-dimethylisoxazol-4-yl)-1-[(1R)-1-(2-pyridyl)propyl]pyrrolo[3,2-b]pyridin-3-yl]benzoate], the IC50 on BRD4-BD12 (1-477) and in the test on MV-4-11 cells was less than 1 µM in each case.

Turning to `CC[C@H](c1ccccn1)n1cc(-c2ccc(C(=O)O)cc2)c2ncc(-c3c(C)noc3C)cc21` [P-0960, 4-[6-(3,5-dimethylisoxazol-4-yl)-1-[(1R)-1-(2-pyridyl)propyl]pyrrolo[3,2-b]pyridin-3-yl]benzoic acid], the IC50 at BRD4-BD12 (1-477) and in the test on MV-4-11 cells was less than 1 µM in each case.

Consider `CC[C@H](c1ccccn1)n1cc(-c2ccc(CC(=O)OC)cc2)c2ncc(-c3c(C)noc3C)cc21` [P-0961, methyl 2-[4-[6-(3,5-dimethylisoxazol-4-yl)-1-[(1R)-1-(2-pyridyl)propyl]pyrrolo[3,2-b]pyridin-3-yl]phenyl]acetate], for which the IC50 on BRD4-BD12 (1-477) and in the test on MV-4-11 cells was less than 1 µM in each case.

With `CC[C@H](c1ccccn1)n1cc(-c2ccc(CC(=O)O)cc2)c2ncc(-c3c(C)noc3C)cc21` [P-0962, 2-[4-[6-(3,5-dimethylisoxazol-4-yl)-1-[(1R)-1-(2-pyridyl)propyl]pyrrolo[3,2-b]pyridin-3-yl]phenyl]acetic acid], the IC50 on BRD4-BD12 (1-477) and in the test with MV-4-11 cells was less than 1 µM throughout.

As for `CC[C@@H](c1ccccn1)n1cc(I)c2ncc(-c3c(C)noc3C)cc21` [P-0963, 4-[3-iodo-1-[(1S)-1-(2-pyridyl)propyl]pyrrolo[3,2-b]pyridin-6-yl]-3,5-dimethyl-isoxazole], the IC50 on BRD4-BD12 (1-477) and with MV-4-11 cells was less than 1 µM in each case.

On to `Cc1noc(C)c1-c1cnc2c(-c3ccc(C4(C(=O)O)CC4)cc3)cn(Cc3ccccn3)c2c1` [P-0964, 1-[4-[6-(3,5-dimethylisoxazol-4-yl)-1-(2-pyridylmethyl)pyrrolo[3,2-b]pyridin-3-yl]phenyl]cyclopropanecarboxylic acid], for which the IC50 on BRD4-BD12 (1-477) and with MV-4-11 cells was less than 1 µM each time.

On to `COC(=O)Cc1ccc(-c2cn(Cc3ccccn3)c3cc(-c4c(C)noc4C)cnc23)cc1` [P-0965, methyl 2-[4-[6-(3,5-dimethylisoxazol-4-yl)-1-(2-pyridylmethyl)pyrrolo[3,2-b]pyridin-3-yl]phenyl]acetate], for which the IC50 on BRD4-BD12 (1-477) and in the test with MV-4-11 cells was less than 1 µM in each case.

For the molecule `CC[C@@H](c1ccccn1)n1cc(-c2ccc(C(=O)OC)cc2)c2ncc(-c3c(C)noc3C)cc21` [P-0966, methyl 4-[6-(3,5-dimethylisoxazol-4-yl)-1-[(1S)-1-(2-pyridyl)propyl]pyrrolo[3,2-b]pyridin-3-yl]benzoate], the IC50 at BRD4-BD12 (1-477) and with MV-4-11 cells was less than 1 µM each time.

For the molecule `CC[C@@H](c1ccccn1)n1cc(-c2ccc(C(=O)O)cc2)c2ncc(-c3c(C)noc3C)cc21` [P-0967, 4-[6-(3,5-dimethylisoxazol-4-yl)-1-[(1S)-1-(2-pyridyl)propyl]pyrrolo[3,2-b]pyridin-3-yl]benzoic acid], the IC50 at BRD4-BD12 (1-477) and with MV-4-11 cells was less than 1 µM each time.

On to `CC[C@@H](c1ccccn1)n1cc(-c2ccc(C3(C(=O)OC)CC3)cc2)c2ncc(-c3c(C)noc3C)cc21` [P-0968, methyl 1-[4-[6-(3,5-dimethylisoxazol-4-yl)-1-[(1S)-1-(2-pyridyl)propyl]pyrrolo[3,2-b]pyridin-3-yl]phenyl]cyclopropanecarboxylate], for which the IC50 at BRD4-BD12 (1-477) and in the test on MV-4-11 cells was less than 1 µM throughout.

For the molecule `CC[C@@H](c1ccccn1)n1cc(-c2ccc(C3(C(=O)O)CC3)cc2)c2ncc(-c3c(C)noc3C)cc21` [P-0969, 1-[4-[6-(3,5-dimethylisoxazol-4-yl)-1-[(1S)-1-(2-pyridyl)propyl]pyrrolo[3,2-b]pyridin-3-yl]phenyl]cyclopropanecarboxylic acid], the IC50 at BRD4-BD12 (1-477) and with MV-4-11 cells was less than 1 µM in each case.

Take `CC[C@@H](c1ccccn1)n1cc(-c2ccc(C#N)cc2)c2ncc(-c3c(C)noc3C)cc21` [P-0970, 4-[6-(3,5-dimethylisoxazol-4-yl)-1-[(1S)-1-(2-pyridyl)propyl]pyrrolo[3,2-b]pyridin-3-yl]benzonitrile]: the IC50 on BRD4-BD12 (1-477) and in the test with MV-4-11 cells was less than 1 µM in each case.

Regarding `Cc1noc(C)c1-c1cnc2c(-c3cnn(CC(F)(F)F)c3)cn(CC3(C)CCOCC3)c2c1` [P-0971, 3,5-dimethyl-4-[1-[(4-methyltetrahydropyran-4-yl)methyl]-3-[1-(2,2,2-trifluoroethyl)pyrazol-4-yl]pyrrolo[3,2-b]pyridin-6-yl]isoxazole], the IC50 at BRD4-BD12 (1-477) and in the test with MV-4-11 cells was less than 1 µM each time.

Take `Cc1ccc(-c2cn(CC3(C)CCOCC3)c3cc(-c4c(C)noc4C)cnc23)cn1` [P-0972, 3,5-dimethyl-4-[3-(6-methyl-3-pyridyl)-1-[(4-methyltetrahydropyran-4-yl)methyl]pyrrolo[3,2-b]pyridin-6-yl]isoxazole]: the half-maximal inhibitory concentration (IC50) on BRD4-BD12 (1-477) and in the test with MV-4-11 cells was less than 1 µM in each case.

Take `Cc1noc(C)c1-c1cnc2c(-c3ccc(CC(=O)O)cc3)cn(Cc3ccccn3)c2c1` [P-0973, 2-[4-[6-(3,5-dimethylisoxazol-4-yl)-1-(2-pyridylmethyl)pyrrolo[3,2-b]pyridin-3-yl]phenyl]acetic acid]: the IC50 on BRD4-BD12 (1-477) and in the test with MV-4-11 cells was less than 1 µM throughout.
